Data reported in US20210348107A1, “DEVICE AND SYSTEMS COMPRISING ELECTRODE ARRAYS FOR ELECTROCONDUCTIVE CELLS” (UNIVERSITY OF WASHINGTON, priority 2018, published 2021).

How the values were obtained:
ALS patients = conditions: cited from earlier work
human cells = conditions: cited from earlier work
CMT2 neurons [1] = experiment: Live cell imaging of mitochondrial transport along axons of CMT2 iPSC motor neurons; assay type: cell-based, human
Experimental: Mitochondrial transport along axons is evaluated using live cell imaging of cultured neurons. Cells are infected with a lentiviral vector expressing mitochondrially targeted fluorescent probe dsRed (mito-dsRed) permitting real-time assessment of mitochondrial movement. Cells are placed within an environmental chamber mounted on an epifluorescent microscope and mitochondrial movement is recorded for 10 minutes with 3-second time-lapse intervals. Image analysis is performed with ImageJ, and Matlab code can be used, for example, to calculate mitochondrial velocity by measuring the distance between the position of individual mitochondria at the start and end of time-lapse recordings and dividing by the time elapsed. This provides a measure of overall transport velocity that includes anterograde and retrograde movements and stationary periods. Mitochondria are then classified as motile (velocity >0.1 μm s-1) or stationary (velocity ≤0.1 μm s-1), in line with disclosed methods (see e.g., Saporta et al. Experimental neurology. 2015; 263:190-9). Immunostaining is used to quantify mitochondrial density within the developing growth cone of cultured neurons as a means to evaluate the effect of altered transport on presynaptic development. To account for time dependent maturation, neurons are evaluated for all end-points following 1, 2, 3, and 4 weeks in culture. […]

CMT2 neurons [2] = experiment: Acetylated α-tubulin levels in CMT2 neurons after HDAC6 inhibitor treatment; assay type: cell-based, human; conditions: data not shown
Text: Treatment with this compound was also found to improve both the absolute velocity and the total number of moving axonal mitochondria. Decreased acetylated α-tubulin abundance is a characteristic feature of CMT2, and has been directly linked to severe axonal transport deficits in mouse models of the disease. […] The NMJ platform constitutes the ideal model for performing assessment of whether the reported changes result in restoration of WT NMJ phenotypes. Furthermore, the establishment of methods for screening compound action using this platform is translatable to other drug candidates and models of other neuropathic disease states.

nerve terminal = conditions: cited from earlier work
neurons = conditions: following spinal cord, head injury, and cerebral ischemia; by blocking excitotoxicity; cited from earlier work

Nc1nc2ccc(OC(F)(F)F)cc2s1 [Riluzole]
prolongation of life (ALS patients): prolonging life by a few months

O=C(NCCO[N+](=O)[O-])c1cccnc1 [Nicorandil]
mitochondrial production of reactive oxygen species (ROS) (human cells): limit mitochondrial production of reactive oxygen species

CN1CCc2c(c3ccccc3n2Cc2ccc(C(=O)NO)cc2)C1 [Tubastatin A]
absolute velocity of moving axonal mitochondria (CMT2 neurons [1]): improve
total number of moving axonal mitochondria (CMT2 neurons [1]): improve
levels of acetylated α-tubulin (CMT2 neurons [2]): significantly improved

Nc1ccncc1N [3,4-diaminopyridine]
acetylcholine release from the nerve terminal (nerve terminal): enhances
conduction in unmyelinated nerves (nerve terminal): improves

Cc1cccc(C)c1OCC(C)N (centres unmarked) [Mexiletine]
protection of neurons (neurons): protective of neurons
